This passage reports IC50 results from PubChem BioAssay AID1361 (SRMLSC, 2008).

In general, IC50 refers to the point on the concentration scale where inhibition reaches its midpoint.

The structures appear in SMILES notation. The source made the active and inactive calls. How the calls were made is not given here.

The nature of this assay: blockers of mitochondrial fusion, WT vs mutant – cell-based, chemical genetic, wild-type and mutant, confirmation (AID 1361). The settings on record: Cell-based mitochondrial fusion phenotype, imaging.
The mark [1] stands for this setting: mutant cells, measured here: mutant cell line IC50.

In the case of `CCCCCCc1nc2ccccc2c(=O)n1NC(=O)c1c(O)c2cccc3c2n(c1=O)CCC3`, the IC50 is 10.5 µM (WT cells) and greater than 25 µM under setting [1].
On to `NC(=S)N/N=C/c1ccccc1OCCSc1ccc(Cl)cc1`, for which the IC50 is, setting by setting: (WT cells) 6.86 µM; under setting [1], 12 µM.
For `c1ccc(CC2CCN(c3nnnn3-c3ccccc3)CC2)cc1`, in that order: > 25 µM (inactive) and greater than 25 µM.
For `O=C(NCc1ccccn1)C(=O)Nc1nc(C23CC4CC(CC(C4)C2)C3)cs1`, the IC50 reads like this: (WT cells) 15 µM; under setting [1], greater than 25 µM.
For `Cc1cc(C)n(CCc2nc(-c3ccc(C(C)(C)C)cc3)cs2)n1`, in that order: 22.1 µM and greater than 25 µM.
For `CCCCc1nc(NCCN)c(C#N)c2c1CSC(C)(C)C2`, in that order: 21.7 µM and greater than 25 µM.
With `CC(C)CC(=O)NC(=S)N(Cc1ccccc1)Cc1ccccc1`, the IC50 by setting is: (WT cells) 19.2 µM; under setting [1], greater than 25 µM.
For `CC(=O)Nc1ccc(S(=O)(=O)N2CCN(C)CC2)cc1` the same measures were > 25 µM (inactive) and greater than 25 µM.
For `O/N=C(\c1ccc(Cl)cc1Cl)c1ncc(C(F)(F)F)cc1Cl` the same measures were 20.9 µM and greater than 25 µM.
In the case of `CCC(C)(C)NC(=O)C(c1ccc(C)cc1)N(Cc1cccs1)C(=O)c1ccc2c(c1)OCCO2` (centres undefined), the IC50 is, setting by setting: (WT cells) 14.1 µM; under setting [1], greater than 25 µM.
For `Cc1cc(C)c(OCC(=O)Nc2nnc(-c3ccco3)o2)c(C)c1`, in that order: > 25 µM (inactive) and greater than 25 µM.
For `O=[N+]([O-])c1cccnc1N1CCC(c2cc(-c3ccc(Cl)cc3Cl)n[nH]2)CC1` the same measures were 6.53 µM and greater than 25 µM.
As for `N#C[C@H]1[C@H](c2ccccc2)[C@](C#N)(C(=O)c2ccccc2)[C@@H]2C=Cc3ccccc3N21`, the IC50 by setting is: (WT cells) > 25 µM (inactive); under setting [1], greater than 25 µM.
Consider `Cc1ccc(-c2nc3cc(Br)cnc3nc2-c2ccc(C)cc2)cc1`, for which the IC50 reads like this: (WT cells) 9.24 µM; under setting [1], greater than 25 µM.
Turning to `COc1ccc2ccc3c(c2c1)N=CC1(O3)N(C)c2ccccc2C1(C)C` (centres undefined), the IC50 runs as follows: (WT cells) 6.02 µM; under setting [1], greater than 25 µM.
For `CCCOC(=O)CN1C(=O)c2ccccc2C1=O` the same measures were > 25 µM (inactive) and greater than 25 µM.
For `CCC(C(=O)OCC(=O)Nc1ccc(SC(F)F)cc1)c1ccccc1` (centres undefined) the same measures were 17.6 µM and greater than 25 µM.
For `Cc1cccc(-c2noc(CN(C(=O)CCc3ccccc3)C(C)C)n2)c1`, in that order: > 25 µM (inactive) and 24.5 µM.
On to `CCOC(=O)c1c(-c2cccs2)csc1NC(=O)C(C)(C)C`, for which the IC50 runs as follows: (WT cells) 24.5 µM; under setting [1], greater than 25 µM.
For `COc1ccc(NC(=O)c2csc(Cc3ccc(Cl)cc3)n2)cc1`, the 50% inhibitory concentration (IC50) (WT cells) is 16 µM and the IC50 under setting [1] was 24.4 µM.
For `CC(C)Cn1c(CN(Cc2ccccc2)Cc2ccccc2)nc2c1c(=O)n(C)c(=O)n2C`, in that order: 11.5 µM and greater than 25 µM.
Take `CN1CCN(c2nc(-c3cccnc3)nc3ccccc23)CC1`: the IC50 was > 25 µM (inactive) (WT cells) and greater than 25 µM under setting [1].
Turning to `CCN1CCN(CCNC(=O)c2ccc(/C=C3\Sc4ccccc4N(Cc4ccccc4F)C3=O)cc2)CC1`, the IC50 (WT cells) is 18.9 µM (inactive) and the half-maximal inhibitory concentration (IC50) under setting [1] was greater than 12.5 µM.
With `Cc1nn(-c2cc(C)c3ccccc3n2)c2c1C1C(C2)C1(C)C` (centres undefined), the IC50 reads like this: (WT cells) > 25 µM (inactive); under setting [1], greater than 25 µM.
Consider `C=CCn1c(N)c(C(=O)OCC(C)C)c2nc3ccccc3nc21`, for which the IC50 by setting is: (WT cells) > 25 µM (inactive); under setting [1], greater than 25 µM.
For `O=C(C1CCCCC1)N(Cc1ccccc1)c1ccccn1`, in that order: > 25 µM (inactive) and greater than 25 µM.
For `CC1(C)CC(=O)C2=C(C1)N(c1ccc(F)cc1)C(=O)C2(O)C(F)(F)F` (centres undefined), in that order: > 25 µM (inactive) and greater than 12.5 µM.
